Data from PMC2994747, “Molecular Characterization of c-Abl/c-Src Kinase Inhibitors Targeted against Murine Tumour Progenitor Cells that Express Stem Cell Markers” (PLoS ONE, 2010).
Like-named read-outs stand apart in the source and are kept apart here. Values belong to the compound of their own block, whether it stands above or below them.

Legend:
[1] = test system: A2C12; experiment: MTS cell viability assay; assay type: cell-based, mouse
Method in brief: (§1)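 CaCo2, HepG2, A549 and murine NSCLC lines grown in DMEM/10% FCS at 37°C, treated in triplicate with inhibitors or vehicle (0.2% DMSO) for 24 h or 96 h. MTS reagent added for 1 h; absorbance read at 490 nm.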

[2] = test system: BetaD5; experiment: MTS cell viability assay; assay type: cell-based, mouse
Method in brief: as §1

[3] = test system: GammaA3; experiment: MTS cell viability assay; assay type: cell-based, mouse
Method in brief: as §1

[4] = test system: GammaD12; experiment: MTS cell viability assay; assay type: cell-based, mouse
Method in brief: as §1

[5] = test system: A549; experiment: MTS cell viability assay; assay type: cell-based, human
Method in brief: as §1

[6] = test system: CaCo2; experiment: MTS cell viability assay; assay type: cell-based, human
Method in brief: as §1

[7] = test system: HepG2; experiment: MTS cell viability assay; assay type: cell-based, human
Method in brief: as §1

[8] = test system: BetaD5; experiment: Cell cycle analysis by flow cytometry; assay type: cell-based, mouse; conditions: IC50 concentration, 96 h
Method in brief: (§2)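 Cells trypsin-harvested, PBS-washed, stained with CycleTEST PLUS DNA kit (solution A 10 min at room temperature, then solutions B and C, C step at 4°C in dark). DNA content read by flow cytometry on FACScan.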

[9] = test system: GammaA3; experiment: Cell cycle analysis by flow cytometry; assay type: cell-based, mouse; conditions: IC50 concentration, 96 h
Method in brief: as §2

[10] = test system: GammaD12; experiment: Cell cycle analysis by flow cytometry; assay type: cell-based, mouse; conditions: IC50 concentration, 96 h
Method in brief: as §2

[11] = test system: A549; experiment: Cell cycle analysis by flow cytometry; assay type: cell-based, human; conditions: IC50 concentration, 96 h
Method in brief: as §2

[12] = test system: CaCo2; experiment: Cell cycle analysis by flow cytometry; assay type: cell-based, human; conditions: IC50 concentration, 96 h
Method in brief: as §2

[13] = test system: HepG2; experiment: Cell cycle analysis by flow cytometry; assay type: cell-based, human; conditions: IC50 concentration, 96 h
Method in brief: as §2

[14] = test system: A549; experiment: Western blot, semi-quantitative protein expression; assay type: cell-based, human
Experimental: (§3) For the Western Blot analysis, cells were rinsed and lysed as previously described. An amount of 25 µg protein was used for SDS-PAGE. Antibodies for c-Abl (sc-131), Actin (sc-1616), Cdc2-p34 (sc-8395), EPS15 (sc-1840), FAK (sc-558), c-Fos (sc-52), p38 (sc-7972), p53 (sc-6243) and STAT5 (sc-835x) were obtained from Santa Cruz (Santa Cruz Biotechnology, Heidelberg, Germany), while c-Src (2109) and phospho-Src Y416 (2101) were purchased from Cell Signaling (Cell Signaling Technology, Frankfurt a. M., Germany). The EGFR (06-847), phospho-EGFR Y992 (07-821) and phospho-EGFR Y1045 (04-284) stem from Upstate (Upstate, Schwalbach, Germany) and the hnRNP-K (A300-676A) from Bethyl Labs (Bethyl Laboratories, Montgomery, Texas, USA). Finally p73 (IMG-246) was supplied by Imgenex (Imgenex, Hamburg, Germany). Depending on the primary antibody the secondary antibodies were either horseradish peroxidase-conjugated anti-mouse (AP 160P), anti-rabbit (AP 132P) or anti-sheep (AP 147P) (Chemicon, Schwalbach, Germany).
(§4) Semi-quantitative analysis were carried out with Kodak 1D Image Analysis Software in reference to the vehicle treated control cells (see supplementary table S7).

[15] = test system: CaCo2; experiment: Western blot, semi-quantitative protein expression; assay type: cell-based, human
Experimental: as §3, §4

[16] = test system: human and murine cell lines; experiment: Western blot, statements over human and murine cell lines; assay type: cell-based; conditions: IC50 concentration, 96 h
Experimental: as §3, §4

[17] = Mus musculus, 24 h, read-out: Calculated IC50 after single treatment for 24 h
[18] = Mus musculus, 96 h, read-out: Calculated IC50 after daily treatment for 96 h
[19] = 24 h, read-out: Calculated IC50 after single treatment for 24 h
[20] = 96 h, read-out: Calculated IC50 after daily treatment for 96 h

IC50 ([5]; Homo sapiens, A549, 24 h, 24 h, read-out: Calculated IC50 after single treatment for 24 h): 26.1 ± 2.6 µM | IC50 ([5]; Homo sapiens, A549, 96 h, 96 h, read-out: Calculated IC50 after daily treatment for 96 h): 2.7 µM | IC50 ([6]; Homo sapiens, Caco-2, 24 h, read-out: Calculated IC50 after single treatment for 24 h): 64600 ± 10300 nM | IC50 ([6]; Homo sapiens, Caco-2, 96 h, read-out: Calculated IC50 after daily treatment for 96 h): 2100 ± 200 nM | IC50 ([7]; Homo sapiens, 24 h, read-out: Calculated IC50 after single treatment for 24 h): 64.6 ± 10.3 µM | IC50 ([7]; Homo sapiens, 96 h, read-out: Calculated IC50 after daily treatment for 96 h): 20.9 ± 1.8 µM
SMILES: Clc1cccc(Nc2nc(SC3CCCC3)nc3c2cnn3CC(Cl)c2ccccc2)c1 (stereo not shown) [Si135]
IC50 [1, 17]: 25.5 ± 3.8 µM | IC50 [1, 18]: 4.1 ± 0.4 µM | IC50 [2, 17]: 13 ± 2.2 µM | IC50 [2, 18]: 3.6 ± 0.2 µM | IC50 [3, 17]: 10 ± 2.2 µM | IC50 [3, 18]: 3.8 ± 0.2 µM | IC50 ([4]; Mus musculus, MTS, 24 h, read-out: Calculated IC50 after single treatment for 24 h): 14.7 ± 0.6 µM | IC50 ([4]; Mus musculus, MTS, 96 h, read-out: Calculated IC50 after daily treatment for 96 h): 3.5 ± 0.2 µM | Cells in G1 phase [8]: 73% | Cells in G2 phase [8]: 22.3% | Cells in S phase [8]: 4.7% | Cells in G1 phase [9]: up to 75% | Cells in G2 phase [9]: 14.9% | Cells in S phase [9]: 10% | Cells in G1 phase ([9]; listed as Si 135): 75.1% | Cells in G1 phase [10]: 35.5% | Cells in G2 phase [10]: 12.5% | Cells in S phase [10]: 51.9% | Cells in G1 phase [11]: 50.8% | Cells in G2 phase [11]: 8.6% | Cells in S phase [11]: 40.6% | Cells in G1 phase [12]: 42.1% | Cells in G2 phase [12]: 12.1% | Cells in S phase [12]: 45.8% | Cells in G1 phase [13]: 58% | Cells in G2 phase [13]: 9.5% | Cells in S phase [13]: 32.5% | Actin protein expression [14]: 98 | Cdc2-p34 protein expression [14]: 82 | EGFR Y992-p protein expression [14]: 128 | EGFR Y1045-p protein expression [14]: 23 | EGFR protein expression [14]: 45 | EPS15 protein expression [14]: 56 | FAK protein expression [14]: 130 | STAT5 protein expression [14]: 80 | c-Abl protein expression [14]: 88 | c-Fos protein expression [14]: 50 | c-Src Y416-p protein expression [14]: 110 | c-Src protein expression [14]: 94 | hnRNP-K protein expression [14]: 83 | p38 protein expression [14]: 62 | p53 protein expression [14]: 59 | p73 protein expression [14]: 55 | Actin protein expression [15]: 120 | Cdc2-p34 protein expression [15]: 74 | EGFR Y992-p protein expression [15]: 113 | EGFR Y1045-p protein expression [15]: 104 | EGFR protein expression [15]: 44 | EPS15 protein expression [15]: 79 | FAK protein expression [15]: 82 | STAT5 protein expression [15]: 120 | c-Abl protein expression [15]: 155 | c-Fos protein expression [15]: 164 | c-Src Y416-p protein expression [15]: 129 | c-Src protein expression [15]: 125 | hnRNP-K protein expression [15]: 90 | p38 protein expression [15]: 64 | p53 protein expression [15]: 69 | p73 protein expression [15]: 66 | hnRNP-K protein level [16]: remained equal

SMILES: Fc1ccccc1CNc1ncnc2c1cnn2CC(Cl)c1ccc(Br)cc1 (stereo not shown) [Si162]
IC50 [1, 19]: 17.6 ± 1.2 µM | IC50 [1, 20]: 2.1 ± 0.2 µM | IC50 [2, 19]: 8.3 ± 1.2 µM | IC50 [2, 20]: 6.4 ± 0.5 µM | IC50 [3, 19]: 13.1 ± 1.1 µM | IC50 [3, 20]: 6.4 ± 0.4 µM | IC50 ([4]; 96 h, read-out: IC50 (MTS) after treatment for 96 h): 0.8 µM | IC50 ([4]; MTS, 24 h, read-out: Calculated IC50 after single treatment for 24 h): 11.6 ± 1.3 µM | IC50 [5, 19]: 21.9 ± 2.7 µM | IC50 [5, 20]: 5 µM | IC50 [6, 19]: > 100000 nM | IC50 [6, 20]: 1900 ± 200 nM | IC50 [7, 19]: 34.7 ± 3.4 µM | IC50 [7, 20]: 14.5 µM | Cells in G1 phase [8]: 22.8% | Cells in G2 phase [8]: 42.8% | Cells in S phase [8]: 34.5% | Cells in G1 phase [9]: 40.3% | Cells in G2 phase [9]: 31.5% | Cells in S phase [9]: 28.1% | Cells in G1 phase [10]: 24.1% | Cells in G2 phase [10]: 12.4% | Cells in S phase [10]: 63.5% | Cells in G1 phase [11]: 8.5% | Cells in G2 phase [11]: up to 72.3% | Cells in S phase [11]: 19.2% | Cells in G2 phase ([11]; listed as Si 162): 72.3% | Cells in G1 phase [12]: 41.3% | Cells in G2 phase [12]: 12.3% | Cells in S phase [12]: 46.4% | Cells in G1 phase [13]: 17.8% | Cells in G2 phase [13]: 63% | Cells in S phase [13]: 19.3% | Actin protein expression [14]: 62 | Cdc2-p34 protein expression [14]: 5.47 | EGFR Y1045-p protein expression [14]: 7 | EGFR protein expression [14]: 0.418 | EPS15 protein expression [14]: 10 | FAK protein expression [14]: 46 | STAT5 protein expression [14]: 17 | c-Abl protein expression [14]: 8.56 | c-Fos protein expression [14]: 10 | c-Src protein expression [14]: 49 | hnRNP-K protein expression [14]: 39 | p38 protein expression [14]: 19 | p53 protein expression [14]: 48 | p73 protein expression [14]: 10 | c-Src autophosphorylation (Tyr416), in words ([14]; IC50 concentration, 96 h): inhibition of c-Src autophosphorylation | Actin protein expression [15]: 116 | Cdc2-p34 protein expression [15]: 43 | EGFR Y992-p protein expression [15]: 178 | EGFR Y1045-p protein expression [15]: 131 | EPS15 protein expression [15]: 42 | FAK protein expression [15]: 52 | STAT5 protein expression [15]: 69 | c-Abl protein expression [15]: 114 | c-Fos protein expression [15]: 35 | c-Src Y416-p protein expression [15]: 213 | c-Src protein expression [15]: 88 | hnRNP-K protein expression [15]: 62 | p38 protein expression [15]: 29 | p53 protein expression [15]: 55 | p73 protein expression [15]: 43 | Repression of FAK protein ([16]; lung cancer cell lines): up to 50%
